Measured values as given in patent US20190053492A1, “SUBSTITUTED PYRIDINE COMPOUNDS AS PESTICIDES” (Bayer CropScience Aktiengesellschaft, priority 2016, published 2019).
Read-outs that look alike come from different tables or passages of the source.

Experiments:
[1] = log P by HPLC on reversed-phase column (C 18), EEC Directive 79/831 Annex V.A8; type: physicochemical; conditions: 55° C.; for LOGP_HCOOH: log P (HCOOH); for chromatographic logP: reversed-phase HPLC column (C 18)
Experimental: Temperature: 55° C. […] Called log P (HCOOH) in the table. […] Called log P (neutral) in the table.

Spodoptera frugiperda = Spodoptera frugiperda spray test; type: in vivo; conditions: after 7 days, maize leaf discs; for pest or weed control at 500 g/ha / pest or weed control at 100 g/ha: Spodoptera frugiperda, foliar, 168 h, read-out: efficacy (caterpillars killed)
Experimental: Spodoptera frugiperda—Spray Test
Solvent: 78.0 parts by weight of acetone • • 1.5 parts by weight of dimethylformamide
Emulsifier: alkylaryl polyglycol ether
To produce a suitable active ingredient formulation, 1 part by weight of active ingredient is dissolved with the specified parts by weight of solvent and made up with water containing an emulsifier concentration of 1000 ppm until the desired concentration is attained. To produce further test concentrations, the formulation is diluted with emulsifier-containing water.
Leaf discs of maize (Zea mays) are sprayed with an active ingredient formulation of the desired concentration and, after drying, populated with caterpillars of the armyworm (Spodoptera frugiperda).
After 7 days, the efficacy in % is determined. 100% means that all the caterpillars have been killed; 0% means that no caterpillar has been killed.

[2] = acidic range at pH 2.7, 0.1% aqueous formic acid and acetonitrile, HPLC on reversed-phase column (C 18)
[3] = log P, neutral range, HPLC on reversed-phase column (C 18)
[4] = acidic range pH 2.7, 0.1% aqueous formic acid and acetonitrile, reversed-phase column (C 18)
[5] = pH 2.7, LC-MS acidic range, pH 2.7, 0.1% formic acid/acetonitrile, read-out: log P (acidic) / log P (HCOOH)
[6] = pH 7.8, LC-MS neutral range, pH 7.8, ammonium hydrogencarbonate/acetonitrile, read-out: log P (neutral)
[7] = log P (neutral), HPLC reversed-phase column (C 18)

| Compound | LOGP_HCOOH [1, 2] | LOGP_NEUTRAL [1, 3] | efficacy (caterpillars killed) (Spodoptera frugiperda; application rate 100 g/ha) [%] | efficacy (caterpillars killed) (Spodoptera frugiperda; application rate 500 g/ha) [%] | LOGP_HCOOH [1, 4] | other results |
| --- | --- | --- | --- | --- | --- | --- |
| CCN(C(=O)C(C)C)c1cc(-c2ccc(OC(F)(F)F)cc2)cc(C(=O)NCc2ccc(C#N)cc2)n1 [Example I-221] | 4.20 | 4.20 | 80 | – | – | – |
| N#CCCCCCNC(=O)c1cc(-c2ccc(OC(F)(F)F)cc2)cc(NC(=O)C2CC2)n1 [Example I-200] | 3.59 | 3.51 | 100 | 100 | – | – |
| O=C(NCC1CCC(C(F)(F)F)CC1)c1cc(-c2ccc(OC(F)(F)F)cc2)cc(NC(=O)C2CC2)n1 (stereo not drawn) [Example I-156] | 4.97 | 4.85 | 100 | 100 | – | – |
| Cn1ncc2cccc(CNC(=O)c3cc(-c4ccc(OC(F)(F)F)cc4)cc(NC(=O)C4CC4)n3)c21 [Example I-092] | – | 3.67 | – | 100 | 3.81 | – |
| CCC(C#N)(CC)NC(=O)c1cc(-c2ccc(OC(F)(F)F)cc2)cc(NC(=O)C2CC2)n1 [Example I-139] | 4.28 | – | – | 100 | – | – |
| O=C(NC1CCC1)c1cc(-c2ccc(C(F)(F)F)cc2)cc(NC(=O)C2CC2)n1 [Example I-033] | – | 3.80 | – | 100 | 3.88 | – |
| CCc1cc(C(F)(F)C(F)(F)F)cc(C)c1-c1cc(NC(=O)C2CC2)nc(C(=O)NCc2ccc(C#N)cc2)c1 [Example I-148, N-(4-Cyanobenzyl)-6-[(cyclopropylcarbonyl)amino]-4-[2-ethyl-6-methyl-4-(pentafluoroethyl)phenyl]pyridine-2-carboxamide] | 4.85 | 4.72 | – | – | – | chromatographic logP [1, 5]: 4.85; chromatographic logP [1, 6]: 4.72; pest or weed control at 500 g/ha (Spodoptera frugiperda; application rate 500 g/ha): 100% |
| O=C(NCc1cccc(F)c1)c1cc(-c2ccc(C(F)(F)F)cc2)cc(NC(=O)C2CC2)n1 [Example I-003] | – | – | – | 83 | 4.24 | – |
| N#Cc1ccc2[nH]nc(NC(=O)c3cc(-c4ccc(OC(F)(F)F)cc4)cc(NC(=O)C4CC4)n3)c2c1 [Example I-166] | 3.68 | – | – | 83 | – | – |
| COc1ccc(CNC(=O)c2cc(-c3ccc(OC(F)(F)F)cc3)cc(NC(=O)C3CC3)n2)cc1 [Example I-083] | – | 4.05 | 83 | 100 | 4.22 | – |
| N#Cc1ccc(CNC(=O)c2cc(-c3ccc(OC(F)(F)F)cc3)cc(NC(=O)Cc3ccc(C(F)(F)F)cc3)n2)cc1 [Example I-260] | – | – | 100 | 100 | 4.68 | LOGP_NEUTRAL [1, 7]: 4.66 |
| N#CC1CCC(CNC(=O)c2cc(-c3ccc(OC(F)(F)F)cc3)cc(NC(=O)C3CC3)n2)CC1 (stereo not drawn) [Example I-198] | 3.85 | 3.75 | 100 | 100 | – | – |
| N#Cc1ccc(CNC(=O)c2cc(-c3ccc(OC(F)(F)F)cc3)cc(NC(=O)c3ccc(Cl)nc3)n2)cc1 [Example I-256] | – | – | – | 100 | 4.25 | LOGP_NEUTRAL [1, 7]: 4.20 |
| N#CC1(NC(=O)c2cc(-c3ccc(OC(F)(F)F)cc3)cc(NC(=O)C3CC3)n2)CCOCC1 [Example I-134] | 3.58 | – | 83 | 100 | – | – |
| O=C(NCc1ccc(Cl)c(F)c1)c1cc(-c2ccc(OC(F)(F)F)cc2)cc(NC(=O)C2CC2)n1 [Example I-062] | – | 4.53 | 83 | 100 | 4.67 | – |
| N#Cc1ccc(CNC(=S)c2cc(-c3ccc(OC(F)(F)F)cc3)cc(NC(=S)C3CC3)n2)cc1 [Example I-181, N-(4-Cyanobenzyl)-6-[(cyclopropylcarbonothioyl)amino]-4-[4-(trifluoromethoxy)phenyl]pyridine-2-carbothioamide] | 5.54 | 5.43 | – | – | – | chromatographic logP [1, 5]: 5.54; chromatographic logP [1, 6]: 5.43; pest or weed control at 100 g/ha (Spodoptera frugiperda; application rate 100 g/ha): 100%; pest or weed control at 500 g/ha (Spodoptera frugiperda; application rate 500 g/ha): 100% |
| CC(C)CNC(=O)c1cc(-c2ccc(C(F)(F)F)cc2)cc(NC(=O)C2CC2)n1 [Example I-032] | – | 3.98 | – | 100 | 4.06 | – |
| O=C(NCCCc1ccc(C(F)(F)F)cc1)c1cc(-c2ccc(C(F)(F)F)cc2)cc(NC(=O)C2CC2)n1 [Example I-058] | – | 4.79 | – | 100 | 4.94 | – |
| O=C(NC1CCCC1)c1cc(-c2ccc(OC(F)(F)F)cc2)cc(NC(=O)C2CC2)n1 [Example I-169] | 4.35 | 4.22 | 100 | 100 | – | – |
| N#Cc1ccc(CNC(=O)c2cc(-c3ccc(OC(F)F)cc3)cc(NC(=O)C3CC3)n2)cc1 [Example I-029] | – | 3.21 | – | 83 | 3.28 | – |
| O=C(NCc1cccc(Cl)c1)c1cc(-c2ccc(C(F)(F)F)cc2)cc(NC(=O)C2CC2)n1 [Example I-006] | – | 4.43 | – | 100 | 4.49 | – |
| CC1(NC(=O)c2cc(-c3ccc(OC(F)(F)F)cc3)cc(NC(=O)C3CC3)n2)CSC1 [Example I-163] | 4.32 | 4.24 | – | 100 | – | – |
| N#Cc1ccc(CNC(=O)c2cc(-c3ccc(OC(F)(F)F)cc3Cl)cc(NC(=O)C3CC3)n2)cc1 [Example I-122] | 4.18 | 3.99 | 100 | 100 | – | – |
| COC(=O)N(Cc1ccc(C#N)cc1)C(=O)c1cc(-c2ccc(OC(F)(F)F)cc2)cc(NC(=O)C2CC2)n1 [Example I-231, Methyl (4-cyanobenzyl)({6-[(cyclopropylcarbonyl)amino]-4-[4-(trifluoromethoxy)phenyl]pyridin-2-yl}carbonyl)carbamate] | 4.41 | 4.43 | – | – | – | chromatographic logP [1, 5]: 4.41; chromatographic logP [1, 6]: 4.43; pest or weed control at 100 g/ha (Spodoptera frugiperda; application rate 100 g/ha): 100%; pest or weed control at 500 g/ha (Spodoptera frugiperda; application rate 500 g/ha): 100% |
| O=C(NCc1cc(F)c(Cl)cc1Cl)c1cc(-c2ccc(OC(F)(F)F)cc2)cc(NC(=O)C2CC2)n1 [Example I-063] | – | 5.07 | – | 100 | 5.20 | – |
| N#Cc1ccc(CNC(=O)c2cc(-c3ccc(C(F)(F)F)cc3)cc(NC(=O)c3ccc(Cl)cc3)n2)cc1 [Example I-023] | – | 4.66 | – | 83 | 4.77 | – |
| O=C(NCC1CCC1)c1cc(-c2ccc(C(F)(F)F)cc2)cc(NC(=O)C2CC2)n1 [Example I-049] | – | 4.10 | – | 83 | 4.21 | – |
| O=C(NC1(c2ccc([N+](=O)[O-])cc2)CC1)c1cc(-c2ccc(OC(F)(F)F)cc2)cc(NC(=O)C2CC2)n1 [Example I-229] | 4.23 | – | – | 100 | – | – |
| CC(NC(=O)c1cc(-c2ccc(OC(F)(F)F)cc2)cc(NC(=O)C2CC2)n1)c1ccc(C#N)cc1 (single isomer, unassigned) [Example I-219] | 4.17 | 4.02 | – | 83 | – | – |
